From PMC11375437, “Selective labelling of GBA2 in cells with fluorescent β-D-arabinofuranosyl cyclitol aziridines” (Chemical Science, 2024) come the findings set out here.

The test concerns the target T1, rhGBA1 (Homo sapiens, UniProt P04062, R534H).
T1 construct: purchased Sanofi Genzyme (gift) Cerezyme®
T1 sequence (P04062 40-536 R534H): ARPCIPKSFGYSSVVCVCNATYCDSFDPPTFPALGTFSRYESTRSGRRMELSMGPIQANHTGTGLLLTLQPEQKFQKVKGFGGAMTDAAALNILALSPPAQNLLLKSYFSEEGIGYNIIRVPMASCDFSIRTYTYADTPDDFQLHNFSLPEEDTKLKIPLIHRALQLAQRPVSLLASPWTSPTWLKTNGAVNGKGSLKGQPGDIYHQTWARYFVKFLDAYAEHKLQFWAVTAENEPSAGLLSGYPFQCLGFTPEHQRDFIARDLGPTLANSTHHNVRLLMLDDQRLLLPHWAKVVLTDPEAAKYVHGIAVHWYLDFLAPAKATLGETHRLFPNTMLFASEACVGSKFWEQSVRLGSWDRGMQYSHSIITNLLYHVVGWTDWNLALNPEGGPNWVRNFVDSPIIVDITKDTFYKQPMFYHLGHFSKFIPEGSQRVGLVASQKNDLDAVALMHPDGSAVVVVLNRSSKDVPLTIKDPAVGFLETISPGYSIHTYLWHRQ
The test can be described thus: Labelling of GBA2 OE lysate spiked with rhGBA1, residual rhGBA1 read out with ABP 10 or 11. In kind it is biochemical. To be noted: GBA2 OE lysate spiked with 3 ng rhGBA1; 30 min. How it is done:
To this end, lysates of HEK293T cells containing all β-glucosidases (endogenous GBA1 with overexpressed GBA2 and GBA3) were treated with ABPs 3, 4, 5 or 7, followed by protein separation by SDS-PAGE and fluorescence scanning of the wet gel slabs. […] In contrast, the β-D-Araf aziridine ABPs 3 and 4 selectively labelled GBA2 at a concentration of 100 nM, while Cy5 tagged ABP 5 did so at 500 nM. The GBA2 selectivity of β-D-Araf cyclitol aziridines 3, 4 and 5 was confirmed in a mixture of a lysate of overexpressed GBA2 cells spiked with 3 ng rhGBA1 (Fig. 2C and ESI Fig. S3 ^†). […] Therefore, only a combined inactivation rate constant (kinact) and binding constant (KI) ratio (kinact/KI) could be measured. […] Importantly, no labelling of GBA1 or GBA3 was detected under varying pH and time conditions (ESI Fig. S4-2 ^†). […]
2.8 β-Glucosidase inactivation visualized by competitive ABPP with SDS-PAGE In general, samples containing GBA1, GBA2 or GBA3 (see the exact constitution of these samples in the described case) are first incubated (in vitro or in situ) with the inactivator compounds, subsequently, the fluorescent readout ABPs were added and incubated with the mixture to reveal the residual active β-glucosidase enzymes. […]

For `CC1=CC(C)=[N+]2C1=C(CCCCc1cn(CCCCCCCCN3[C@@H]4[C@H](CO)[C@@H](O)[C@H](O)[C@@H]43)nn1)c1c(C)cc(C)n1[B-]2(F)F` (some centres unmarked) [ABP 3], the “Concentration at which marginal GBA1 labelling occurs” value came to 10 µM.

As for `COc1ccc(C2=[N+]3C(=C(CCCCc4cn(CCCCCCCCN5[C@@H]6[C@H](CO)[C@@H](O)[C@H](O)[C@@H]65)nn4)c4ccc(-c5ccc(OC)cc5)n4[B-]3(F)F)C=C2)cc1` (some centres unmarked) [ABP 4], the “Concentration at which marginal GBA1 labelling occurs” value was found to be 10 µM.
